{"source": "patent US20260285850A1", "about": "“SUBSTITUTED OXAZOLIDINONES AND IMIDAZOLINONES AS HERBICIDES” (FMC CORPORATION, priority 2023, published 2026)", "assay_type_in_all_cases": "in vivo", "key": {"[1]": {"test_system": "barnyardgrass (Echinochloa crus-galli)", "experiment": "Test A preemergence soil spray, visual injury rating 0-100", "details": "10 days, 0 = no effect, 100 = complete control", "procedure,_shortened": "(§1)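 Loam-sand pots got test material in surfactant-containing solvent, either as a directed soil spray before emergence or on plants at the one- to two-leaf stage. Visual injury (0-100) was read after ten greenhouse days.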"}, "[2]": {"test_system": "blackgrass (Alopecurus myosuroides)", "experiment": "Test A preemergence soil spray, visual injury rating 0-100", "details": "10 days, 0 = no effect, 100 = complete control", "procedure,_shortened": "as §1"}, "corn (Zea mays) [3]": {"test_system": "corn (Zea mays)", "experiment": "Test A preemergence soil spray, visual injury rating 0-100", "details": "10 days, 0 = no effect, 100 = complete control", "procedure,_shortened": "as §1"}, "[4]": {"test_system": "green foxtail (Setaria viridis)", "experiment": "Test A preemergence soil spray, visual injury rating 0-100", "details": "10 days, 0 = no effect, 100 = complete control", "procedure,_shortened": "as §1"}, "kochia (Bassia scoparia) [5]": {"test_system": "kochia (Bassia scoparia)", "experiment": "Test A preemergence soil spray, visual injury rating 0-100", "details": "10 days, 0 = no effect, 100 = complete control", "procedure,_shortened": "as §1"}, "[6]": {"test_system": "oat, wild (wild oat, Avena fatua)", "experiment": "Test A preemergence soil spray, visual injury rating 0-100", "details": "10 days, 0 = no effect, 100 = complete control", "procedure,_shortened": "as §1"}, "[7]": {"test_system": "palmer (palmer amaranth, palmer pigweed, Amaranthus palmeri)", "experiment": "Test A preemergence soil spray, visual injury rating 0-100", "details": "10 days, 0 = no effect, 100 = complete control", "procedure,_shortened": "as §1"}, "[8]": {"test_system": "ragweed (common ragweed, Ambrosia artemisiifolia)", "experiment": "Test A preemergence soil spray, visual injury rating 0-100", "details": "10 days, 0 = no effect, 100 = complete control", "procedure,_shortened": "as §1"}, "[9]": {"test_system": "ryegrass, Italian (italian ryegrass, Lolium multiflorum)", "experiment": "Test A preemergence soil spray, visual injury rating 0-100", "details": "10 days, 0 = no effect, 100 = complete control", "procedure,_shortened": "as §1"}, "soybean (Glycine max) [10]": {"test_system": "soybean (Glycine max)", "experiment": "Test A preemergence soil spray, visual injury rating 0-100", "details": "10 days, 0 = no effect, 100 = complete control", "procedure,_shortened": "as §1"}, "[11]": {"test_system": "wheat (Triticum aestivum)", "experiment": "Test A preemergence soil spray, visual injury rating 0-100", "details": "10 days, 0 = no effect, 100 = complete control", "procedure,_shortened": "as §1"}, "[12]": {"test_system": "barnyardgrass (Echinochloa crus-galli)", "experiment": "Test A postemergence application, visual injury rating 0-100", "details": "10 days", "procedure,_shortened": "as §1"}, "[13]": {"test_system": "blackgrass (Alopecurus myosuroides)", "experiment": "Test A postemergence application, visual injury rating 0-100", "details": "10 days", "procedure,_shortened": "as §1"}, "corn (Zea mays) [14]": {"test_system": "corn (Zea mays)", "experiment": "Test A postemergence application, visual injury rating 0-100", "details": "10 days", "procedure,_shortened": "as §1"}, "[15]": {"test_system": "galium (catchweed bedstraw, Galium aparine)", "experiment": "Test A postemergence application, visual injury rating 0-100", "details": "10 days", "procedure,_shortened": "as §1"}, "[16]": {"test_system": "green foxtail (Setaria viridis)", "experiment": "Test A postemergence application, visual injury rating 0-100", "details": "10 days", "procedure,_shortened": "as §1"}, "[17]": {"test_system": "horseweed (Erigeron canadensis)", "experiment": "Test A postemergence application, visual injury rating 0-100", "details": "10 days", "procedure,_shortened": "as §1"}, "kochia (Bassia scoparia) [18]": {"test_system": "kochia (Bassia scoparia)", "experiment": "Test A postemergence application, visual injury rating 0-100", "details": "10 days", "procedure,_shortened": "as §1"}, "[19]": {"test_system": "oat, wild (wild oat, Avena fatua)", "experiment": "Test A postemergence application, visual injury rating 0-100", "details": "10 days", "procedure,_shortened": "as §1"}, "[20]": {"test_system": "palmer (palmer amaranth, palmer pigweed, Amaranthus palmeri)", "experiment": "Test A postemergence application, visual injury rating 0-100", "details": "10 days", "procedure,_shortened": "as §1"}, "[21]": {"test_system": "ragweed (common ragweed, Ambrosia artemisiifolia)", "experiment": "Test A postemergence application, visual injury rating 0-100", "details": "10 days", "procedure,_shortened": "as §1"}, "[22]": {"test_system": "ryegrass, Italian (italian ryegrass, Lolium multiflorum)", "experiment": "Test A postemergence application, visual injury rating 0-100", "details": "10 days", "procedure,_shortened": "as §1"}, "soybean (Glycine max) [23]": {"test_system": "soybean (Glycine max)", "experiment": "Test A postemergence application, visual injury rating 0-100", "details": "10 days", "procedure,_shortened": "as §1"}, "[24]": {"test_system": "wheat (Triticum aestivum)", "experiment": "Test A postemergence application, visual injury rating 0-100", "details": "10 days", "procedure,_shortened": "as §1"}, "[25]": {"test_system": "barnyardgrass (Echinochloa crusgalli)", "experiment": "Test B flooded paddy test, visual plant response rating 0-100", "details": "250 g ai/ha, Flood, applied to paddy water, evaluated after 13 days", "procedure,_shortened": "(§2)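 Visual evaluation after 13 days. Water-applied treatment, 3 cm flood depth held constant, plants at 2-leaf stage at treatment.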"}, "[26]": {"test_system": "ducksalad (Heteranthera limosa)", "experiment": "Test B flooded paddy test, visual plant response rating 0-100", "details": "250 g ai/ha, Flood, applied to paddy water, evaluated after 13 days", "procedure,_shortened": "as §2"}, "rice (Oryza sativa)": {"test_system": "rice (Oryza sativa)", "experiment": "Test B flooded paddy test, visual plant response rating 0-100", "details": "250 g ai/ha, Flood, applied to paddy water, evaluated after 13 days", "procedure,_shortened": "as §2"}, "[27]": {"test_system": "sedge, umbrella (small-flower umbrella sedge, Cyperus difformis)", "experiment": "Test B flooded paddy test, visual plant response rating 0-100", "details": "250 g ai/ha, Flood, applied to paddy water, evaluated after 13 days", "procedure,_shortened": "as §2"}, "[28]": {"details": "31 g ai/ha, postemergence, 0 = no effect, 100 = complete control"}, "[29]": {"details": "Postemergence, 125 g ai/ha, 0 is no effect, 100 is complete control"}}, "data": [{"smiles": "CCOC(=O)C1C=CC(NC(=O)C2(C)CN(c3cc(F)cc(Cl)c3)C(=O)O2)C1", "note": "(stereo not shown) [Compound 3]", "values": [{"measurement": "Barnyardgrass plant response rating (0-100)", "setting": "[1]; 31 g ai/ha", "result": 90}, {"measurement": "Barnyardgrass plant response rating (0 to 100 scale)", "setting": "[1]; 125 g ai/ha", "result": 100}, {"measurement": "Blackgrass plant response rating (0-100)", "setting": "[2]; 31 g ai/ha", "result": 0}, {"measurement": "Blackgrass plant response rating (0 to 100 scale)", "setting": "[2]; 125 g ai/ha", "result": 70}, {"measurement": "Corn plant response rating (0-100)", "setting": "corn (Zea mays) [3]; 31 g ai/ha", "result": 50}, {"measurement": "Corn plant response rating (0 to 100 scale)", "setting": "corn (Zea mays) [3]; 125 g ai/ha", "result": 50}, {"measurement": "Foxtail, Green plant response rating (0-100)", "setting": "[4]; 31 g ai/ha", "result": 30}, {"measurement": "Foxtail, Green plant response rating (0 to 100 scale)", "setting": "[4]; 125 g ai/ha", "result": 100}, {"measurement": "Kochia plant response rating (0-100)", "setting": "kochia (Bassia scoparia) [5]; 31 g ai/ha", "result": 70}, {"measurement": "Kochia plant response rating (0 to 100 scale)", "setting": "kochia (Bassia scoparia) [5]; 125 g ai/ha", "result": 100}, {"measurement": "Oat, Wild plant response rating (0-100)", "setting": "[6]; 31 g ai/ha", "result": 10}, {"measurement": "Oat, Wild plant response rating (0 to 100 scale)", "setting": "[6]; 125 g ai/ha", "result": 90}, {"measurement": "Amaranth, Palmer plant response rating (0-100)", "setting": "[7]; 31 g ai/ha", "result": 80}, {"measurement": "Amaranth, Palmer plant response rating (0 to 100 scale)", "setting": "[7]; 125 g ai/ha", "result": 100}, {"measurement": "Ragweed plant response rating (0-100)", "setting": "[8]; 31 g ai/ha", "result": 10}, {"measurement": "Ragweed plant response rating (0 to 100 scale)", "setting": "[8]; 125 g ai/ha", "result": 30}, {"measurement": "Ryegrass, Italian plant response rating (0-100)", "setting": "[9]; 31 g ai/ha", "result": 50}, {"measurement": "Ryegrass, Italian plant response rating (0 to 100 scale)", "setting": "[9]; 125 g ai/ha", "result": 90}, {"measurement": "Soybean plant response rating (0-100)", "setting": "soybean (Glycine max) [10]; 31 g ai/ha", "result": 20}, {"measurement": "Soybean plant response rating (0 to 100 scale)", "setting": "soybean (Glycine max) [10]; 125 g ai/ha", "result": 80}, {"measurement": "Wheat plant response rating (0-100)", "setting": "[11]; 31 g ai/ha", "result": 50}, {"measurement": "Wheat plant response rating (0 to 100 scale)", "setting": "[11]; 125 g ai/ha", "result": 90}, {"measurement": "Barnyardgrass plant response rating (0-100)", "setting": "[12]; [28]", "result": 100}, {"measurement": "Barnyardgrass plant response rating (0 to 100 scale)", "setting": "[12]; [29]", "result": 100}, {"measurement": "Blackgrass plant response rating (0-100)", "setting": "[13]; [28]", "result": 80}, {"measurement": "Blackgrass plant response rating (0 to 100 scale)", "setting": "[13]; [29]", "result": 90}, {"measurement": "Corn plant response rating (0-100)", "setting": "corn (Zea mays) [14]; [28]", "result": 100}, {"measurement": "Corn plant response rating (0 to 100 scale)", "setting": "corn (Zea mays) [14]; [29]", "result": 100}, {"measurement": "Galium plant response rating (0-100)", "setting": "[15]; [28]", "result": 80}, {"measurement": "Galium plant response rating (0 to 100 scale)", "setting": "[15]; [29]", "result": 90}, {"measurement": "Foxtail, Green plant response rating (0-100)", "setting": "[16]; [28]", "result": 90}, {"measurement": "Foxtail, Green plant response rating (0 to 100 scale)", "setting": "[16]; [29]", "result": 90}, {"measurement": "Horseweed plant response rating (0-100)", "setting": "[17]; [28]", "result": 50}, {"measurement": "Horseweed plant response rating (0 to 100 scale)", "setting": "[17]; [29]", "result": 80}, {"measurement": "Kochia plant response rating (0-100)", "setting": "kochia (Bassia scoparia) [18]; [28]", "result": 70}, {"measurement": "Kochia plant response rating (0 to 100 scale)", "setting": "kochia (Bassia scoparia) [18]; [29]", "result": 70}, {"measurement": "Oat, Wild plant response rating (0-100)", "setting": "[19]; [28]", "result": 90}, {"measurement": "Oat, Wild plant response rating (0 to 100 scale)", "setting": "[19]; [29]", "result": 90}, {"measurement": "Amaranth, Palmer plant response rating (0-100)", "setting": "[20]; [28]", "result": 50}, {"measurement": "Amaranth, Palmer / Pigweed, Palmer plant response rating (0 to 100 scale)", "setting": "[20]; [29]", "result": 70}, {"measurement": "Ragweed plant response rating (0-100)", "setting": "[21]; [28]", "result": 50}, {"measurement": "Ragweed plant response rating (0 to 100 scale)", "setting": "[21]; [29]", "result": 80}, {"measurement": "Ryegrass, Italian plant response rating (0-100)", "setting": "[22]; [28]", "result": 80}, {"measurement": "Ryegrass, Italian plant response rating (0 to 100 scale)", "setting": "[22]; [29]", "result": 90}, {"measurement": "Soybean plant response rating (0-100)", "setting": "soybean (Glycine max) [23]; [28]", "result": 90}, {"measurement": "Soybean plant response rating (0 to 100 scale)", "setting": "soybean (Glycine max) [23]; [29]", "result": 90}, {"measurement": "Wheat plant response rating (0-100)", "setting": "[24]; [28]", "result": 90}, {"measurement": "Wheat plant response rating (0 to 100 scale)", "setting": "[24]; [29]", "result": 90}, {"measurement": "Plant response rating, Barnyardgrass (0 to 100 scale, 0 is no effect and 100 is complete control)", "setting": "[25]", "result": 95}, {"measurement": "Plant response rating, Ducksalad (0 to 100 scale, 0 is no effect and 100 is complete control)", "setting": "[26]", "result": 90}, {"measurement": "Plant response rating, Rice (0 to 100 scale, 0 is no effect and 100 is complete control)", "setting": "rice (Oryza sativa)", "result": 70}, {"measurement": "Plant response rating, Sedge, Umbrella (0 to 100 scale, 0 is no effect and 100 is complete control)", "setting": "[27]", "result": 100}]}]}
